Results published in patent US4345938A, “Herbicidal 2-haloacetanilides” (Monsanto Company, priority 1980, dated 1982).
Read-outs that look alike come from different tables or passages of the source.

Tests used:
Assay type in all cases: in vivo
Rice = test: Field transplant rice test, applied 0 DAT, rice injury; settings: Oryza sativa, 0 h, read-out: Percent Inhibition, Rice; for inhibition at 375 g/ha: 0.375 Kg/Ha; for inhibition at 750 g/ha: 0.75 Kg/Ha; for inhibition at 1500 g/ha: 1.5 Kg/Ha; for inhibition at 3000 g/ha: 3.0 Kg/Ha
Procedure: (§1) In further comparative tests, a preferred compound of this invention (Example 1) was tested in the field with prior art Compounds A-D. These tests were conducted under conditions reflecting herbicide application times generally favorable to all herbicides in the test. The timing of application of herbicides to transplant rice is very important, whether, as in some instances, prior to transplanting the rice; in other instances, at the time of transplanting or else after transplanting. Application times are conventionally referred to as "days before transplant" (DBT) or "days after transplant" ("DAT"). The field test data in Table IV was obtained from a test in which the herbicides were applied at the time of transplant, i.e., "0 DAT", with observations being made weekly up to six weeks after transplant ("WAT") beginning at two weeks after transplant; for illustrative and representative purposes, only the early, middle and late period observations, i.e., 2 WAT, 4 WAT and 6 WAT, are shown in Table IV. The data in Table IV is for rates of application common to all herbicides in the test, i.e., from 3.0 kg/ha (2.67 lb/A) down to 0.375 kg/ha (0.34 lb/A). All herbicides were applied at their actual or expected use rates, i.e., as granules containing 2.5% by weight herbicide for the compound of Example 1, Compounds B, C and D and 5.0% by weight for Compound A.

Sagittaria trifolia = test: Field transplant rice test, applied 0 DAT, ST; settings: 0 h, read-out: Percent Inhibition, ST; for inhibition at 375 g/ha: 0.375 Kg/Ha; for inhibition at 750 g/ha: 0.75 Kg/Ha; for inhibition at 1500 g/ha: 1.5 Kg/Ha; for inhibition at 3000 g/ha: 3.0 Kg/Ha
Procedure: (§2) The test data in Table III for all compounds was obtained under identical test conditions. The weeds used in the tests herein have the following abbreviations in the tables: Echinochloa crus-galli (EC), Monochloria vaginalis (MV), Cyperus Serotinus (CS), Eleocharis Kuroguwai (EK) and Sagittaria trifolia (ST).
as §1

Eleocharis kuroguwai = test: Field transplant rice test, applied 9 DAT, EK; settings: for inhibition at 375 g/ha / inhibition at 750 g/ha / inhibition at 1500 g/ha / inhibition at 3000 g/ha: Eleocharis kuroguwai, 216 h, read-out: Percent Inhibition, EK; for inhibition at 375 g/ha: 0.375 Kg/Ha; for inhibition at 750 g/ha: 0.75 Kg/Ha; for inhibition at 1500 g/ha: 1.5 Kg/Ha; for inhibition at 3000 g/ha: 3.0 Kg/Ha
Source text: In the discussion of data below, occasional reference is made to herbicide application rates symbolized as "GR15 " and "GR85 "; these rates are given in kilograms per hectare (kg/ha) which are convertible into pounds per acre (lbs/A) by dividing the kg/ha rate by 1.12.
A further guide to the effectiveness of a chemical as a selective herbicide is the "selectivity factor" ("SF") for a herbicide in given crops and weeds. The selectivity factor is a measure of the relative degree of crop safety and weed injury and is expressed in terms of the GR15 /GR85 ratio, i.e., the GR15 rate for the crop divided by the GR85 rate for the weed, both rates in kg/ha (lb/A.)
as §2, §1
In Table V are presented field data showing the relative performance of the compound of Example 1 and Compounds A-D applied 9 DAT, with observations being made weekly from 3 WAT to 7 WAT; again, for illustrative and representative purposes, only the early, middle and late period observations are reported in Table V, the herbicide rates and concentrations of active ingredients the same as is shown in Table IV.

Echinochloa crus-galli [1] = test: Field transplant rice test, applied 0 DAT, EC; settings: 0 h, read-out: Percent Inhibition, EC; for inhibition at 375 g/ha: 0.375 Kg/Ha; for inhibition at 750 g/ha: 0.75 Kg/Ha; for inhibition at 1500 g/ha: 1.5 Kg/Ha; for inhibition at 3000 g/ha: 3.0 Kg/Ha
Procedure: as §2, §1

Cyperus serotinus [2] = test: Field transplant rice test, applied 0 DAT, CS; settings: 0 h, read-out: Percent Inhibition, CS; for inhibition at 375 g/ha: 0.375 Kg/Ha; for inhibition at 750 g/ha: 0.75 Kg/Ha; for inhibition at 1500 g/ha: 1.5 Kg/Ha; for inhibition at 3000 g/ha: 3.0 Kg/Ha
Procedure: as §2, §1

Cyperus serotinus [3] = test: Greenhouse transplant rice test, CS; settings: about 3 WAT, read-out: Percent Inhibition, CS
Source text: (§3) The test procedure used in this greenhouse test is as follows: Ray silt loam top soil containing about 0.05% by weight of krillium and sifted through a […] screen is fumigated about 5-10 days prior to use. Pots are then filled with said Ray silt loam soil to a level to allow for a 1 in. (2.54 cm) flooding depth. Rice plants (Bluebelle) of 2 to 3 weeks age are transplanted to the pots and bulbs or seeds of the test weeds also planted in the pots. The pots are then flooded and the test chemical applied to the surface of the flood water. The flood water is reduced to allow for germination of the Echinochloa crus-galli (barnyardgrass) seed and subsequently reflooded and maintained in that condition. Observations of percent inhibition using a scale of 0-100% are made about 3 weeks after transplant (WAT).
as §2

Echinochloa crus-galli [4] = test: Greenhouse transplant rice test, EC; settings: about 3 WAT, read-out: Percent Inhibition, EC
Source text: as §3, §2

SMILES: CCCOCCN(C(=O)CCl)c1c(CC)cccc1CC [Compound D, 2',6'-diethyl-N-(n-propoxyethyl)-2-chloroacetanilide]
- inhibition at 375 g/ha (Rice; 2 WAT): 0%
- inhibition at 375 g/ha (Rice; 4 WAT): 3%
- inhibition at 375 g/ha (Rice; 6 WAT): 2%
- inhibition at 750 g/ha (Rice; 2 WAT): 2%
- inhibition at 750 g/ha (Rice; 4 WAT): 2%
- inhibition at 750 g/ha (Rice; 6 WAT): 0%
- inhibition at 1500 g/ha (Rice; 2 WAT): 10%
- inhibition at 1500 g/ha (Rice; 4 WAT): 8%
- inhibition at 1500 g/ha (Rice; 6 WAT): 7%
- inhibition at 3000 g/ha (Rice; 2 WAT): 8%
- inhibition at 3000 g/ha (Rice; 4 WAT): 7%
- inhibition at 3000 g/ha (Rice; 6 WAT): 5%
- inhibition at 375 g/ha (Sagittaria trifolia; 2 WAT): 20%
- inhibition at 375 g/ha (Sagittaria trifolia; 4 WAT): 2%
- inhibition at 375 g/ha (Sagittaria trifolia; 6 WAT): 0%
- inhibition at 750 g/ha (Sagittaria trifolia; 2 WAT): 28%
- inhibition at 750 g/ha (Sagittaria trifolia; 4 WAT): 10%
- inhibition at 750 g/ha (Sagittaria trifolia; 6 WAT): 7%
- inhibition at 1500 g/ha (Sagittaria trifolia; 2 WAT): 23%
- inhibition at 1500 g/ha (Sagittaria trifolia; 4 WAT): 27%
- inhibition at 1500 g/ha (Sagittaria trifolia; 6 WAT): 22%
- inhibition at 3000 g/ha (Sagittaria trifolia; 2 WAT): 22%
- inhibition at 3000 g/ha (Sagittaria trifolia; 4 WAT): 28%
- inhibition at 3000 g/ha (Sagittaria trifolia; 6 WAT): 18%
- selectivity factor (GR15/GR85), EK in transplant rice (Eleocharis kuroguwai; 3 WAT): about 1
- inhibition at 375 g/ha (Eleocharis kuroguwai; 3 WAT): 50%
- inhibition at 375 g/ha (Eleocharis kuroguwai; 5 WAT): 23%
- inhibition at 375 g/ha (Eleocharis kuroguwai; 7 WAT): 0%
- inhibition at 750 g/ha (Eleocharis kuroguwai; 3 WAT): 45%
- inhibition at 750 g/ha (Eleocharis kuroguwai; 5 WAT): 20%
- inhibition at 750 g/ha (Eleocharis kuroguwai; 7 WAT): 0%
- inhibition at 1500 g/ha (Eleocharis kuroguwai; 3 WAT): 52%
- inhibition at 1500 g/ha (Eleocharis kuroguwai; 5 WAT): 30%
- inhibition at 1500 g/ha (Eleocharis kuroguwai; 7 WAT): 0%
- inhibition at 3000 g/ha (Eleocharis kuroguwai; 3 WAT): 84%
- inhibition at 3000 g/ha (Eleocharis kuroguwai; 5 WAT): 78%
- inhibition at 3000 g/ha (Eleocharis kuroguwai; 7 WAT): 45%
- inhibition at 375 g/ha (Echinochloa crus-galli [1]; 2 WAT): 73%
- inhibition at 375 g/ha (Echinochloa crus-galli [1]; 4 WAT): 88%
- inhibition at 375 g/ha (Echinochloa crus-galli [1]; 6 WAT): 83%
- inhibition at 750 g/ha (Echinochloa crus-galli [1]; 2 WAT): 90%
- inhibition at 750 g/ha (Echinochloa crus-galli [1]; 4 WAT): 100%
- inhibition at 750 g/ha (Echinochloa crus-galli [1]; 6 WAT): 100%
- inhibition at 1500 g/ha (Echinochloa crus-galli [1]; 2 WAT): 97%
- inhibition at 1500 g/ha (Echinochloa crus-galli [1]; 4 WAT): 98%
- inhibition at 1500 g/ha (Echinochloa crus-galli [1]; 6 WAT): 93%
- inhibition at 3000 g/ha (Echinochloa crus-galli [1]; 2 WAT): 99%
- inhibition at 3000 g/ha (Echinochloa crus-galli [1]; 4 WAT): 100%
- inhibition at 3000 g/ha (Echinochloa crus-galli [1]; 6 WAT): 100%
- inhibition at 375 g/ha (Cyperus serotinus [2]; 2 WAT): 82%
- inhibition at 375 g/ha (Cyperus serotinus [2]; 4 WAT): 65%
- inhibition at 375 g/ha (Cyperus serotinus [2]; 6 WAT): 33%
- inhibition at 750 g/ha (Cyperus serotinus [2]; 2 WAT): 73%
- inhibition at 750 g/ha (Cyperus serotinus [2]; 4 WAT): 77%
- inhibition at 750 g/ha (Cyperus serotinus [2]; 6 WAT): 70%
- inhibition at 1500 g/ha (Cyperus serotinus [2]; 2 WAT): 92%
- inhibition at 1500 g/ha (Cyperus serotinus [2]; 4 WAT): 93%
- inhibition at 1500 g/ha (Cyperus serotinus [2]; 6 WAT): 93%
- inhibition at 3000 g/ha (Cyperus serotinus [2]; 2 WAT): 67%
- inhibition at 3000 g/ha (Cyperus serotinus [2]; 4 WAT): 65%
- inhibition at 3000 g/ha (Cyperus serotinus [2]; 6 WAT): 60%

SMILES: CCCCOc1cccc(CC)c1N(CC)C(=O)CCl [Example 2, N-ethyl-2'-n-butoxy-6'-ethyl-2-chloroacetanilide]
- inhibition at 280 g/ha (Cyperus serotinus [3]; 0.28 Kg/Ha): 100%
- inhibition at 560 g/ha (Cyperus serotinus [3]; 0.56 Kg/Ha): 100%
- inhibition at 1120 g/ha (Cyperus serotinus [3]; 1.12 Kg/Ha): 100%
- inhibition at 2240 g/ha (Cyperus serotinus [3]; 2.24 Kg/Ha): 100%
- inhibition at 280 g/ha (Echinochloa crus-galli [4]; 0.28 Kg/Ha): 100%
- inhibition at 560 g/ha (Echinochloa crus-galli [4]; 0.56 Kg/Ha): 100%
- inhibition at 1120 g/ha (Echinochloa crus-galli [4]; 1.12 Kg/Ha): 100%
- inhibition at 2240 g/ha (Echinochloa crus-galli [4]; 2.24 Kg/Ha): 100%
